Several values for one entry are separate records, joined by “and”; a condition that tells them apart may be missing. Equal values may be shown once.
What was measured:
[1] = system: PRV; type: cell-based, Pseudorabies virus; conditions: 80 μM TO, 7.4 J/cm^2 cool white light, 20% hematocrit RBCs, 60 min incubation
[2] = system: Serratia marcescens; assay: Bacteria photoinactivation in RBC suspension, colony count; type: cell-based; conditions: 80 μM TO, 7.4 J/cm^2 cool white light, 20% hematocrit RBCs, 60 min incubation
[3] = system: Serratia liquefaciens; assay: as above; type: cell-based; conditions: 80 μM TO, 7.4 J/cm^2 cool white light, 20% hematocrit RBCs, 60 min incubation
[4] = system: RBCs
[5] = system: Escherichia coli; assay: Bacteria photoinactivation in RBC suspension, colony count; type: cell-based; conditions: 80 μM TO, 7.4 J/cm^2 cool white light, 20% hematocrit RBCs, 60 min incubation
[6] = system: intracellular HIV; assay: HIV photoinactivation in RBC suspension, CCRF-CEM coculture and p24 ELISA; type: cell-based, HIV-1; conditions: 80 μM TO, 7.4 J/cm^2 cool white light, 20% hematocrit RBCs, 60 min incubation
[7] = system: bacteria; assay: Bacteria photoinactivation, tested species overall; type: cell-based; conditions: 80 μM TO, 7.4 J/cm^2 cool white light
Experimental: (§1) Viruses or bacteria were added into approximately 50-60% hematocrit RBCs with subsequent addition of additive solution and TO to obtain 20% final hematocrit containing 80 μM of the dye. The final volume of the pathogen spike was equal to 10% for mammalian viruses and equal to 1% for bacteriophage and bacteria. RBC suspensions containing dye were incubated for 60 minutes and 2 ml aliquots were transferred to polystyrene culture dishes (50 mm bottom diameter) to produce a 1 mm blood film. For some bacterial experiments, RBC suspensions were incubated for different times prior to illumination. […] A fluence rate of 8.2 mW/cm^2 was measured by an optical power meter (model 371, United Detector Technology, Hawthorn, Calif.) equipped with a silicone diode detector and radiometric filter (400-1000 nm, model 115-9, United Detector Technology). […]
We prepared bacterial stocks by inoculating a single colony into 5 mL of Luria broth (LB) and incubating cultures overnight under aerobic conditions at 30 or 37° C., depending on the strain. […] Colonies were counted after 24-72 hours of incubation at 30 or 37° C., with time and incubation temperature depending on the strain. Colonies were counted from all plates that contained between 1 and 750 colonies per plate. […]

[8] = system: Deinococcus radiodurans; assay: Bacteria photoinactivation in RBC suspension, colony count; type: cell-based; conditions: 80 μM TO, 7.4 J/cm^2 cool white light, 20% hematocrit RBCs, 60 min incubation
[9] = system: extracellular HIV; type: cell-based; conditions: 80 μM TO, 7.4 J/cm^2 cool white light, 20% hematocrit RBCs, 60 min incubation
[10] = system: bacteriophage φ6; assay: Bacteriophage photoinactivation in RBC suspension, plaque assay; type: cell-based; conditions: 80 μM TO, 7.4 J/cm^2 cool white light, 20% hematocrit RBCs, 60 min incubation
Experimental: Leukodepleted 20% hematocrit RBCs suspended in Erythrosol (RAS-2) were oxygenated, inoculated with test organisms, incubated with TO, and illuminated with 7.4 J/cm^2 of cool white light. Control and treated samples were analyzed by appropriate assay. Identically prepared, but uncontaminated samples were phototreated, concentrated to 45% hematocrit, and assayed for potassium leakage, hemolysis and ATP during storage.
as §1, with “bacteria.” for “bacteria. RBC suspensions containing dye were incubated for 60 minutes and 2 ml aliquots were transferred to polystyrene culture dishes (50 mm bottom diameter) to produce a 1 mm blood film. For some bacterial experiments, RBC suspensions were incubated for different times prior to illumination.”
All virus assays were individually tested for cytotoxicity and interference. […] Log10 reduction values were calculated by subtracting the log10 titer/mL of RBCs with viable virus after illumination, or the log10 limit of detection/mL of RBCs without viable virus after illumination, from the measured log10 titer/mL of unilluminated RBCs.

[11] = system: Staphylococcus epidermidis; assay: Bacteria photoinactivation in RBC suspension, colony count; type: cell-based; conditions: 80 μM TO, 7.4 J/cm^2 cool white light, 20% hematocrit RBCs, 60 min incubation
[12] = system: enveloped viruses; type: cell-based
[13] = system: Staphylococcus aureus; assay: Bacteria photoinactivation in RBC suspension, colony count; type: cell-based; conditions: 80 μM TO, 7.4 J/cm^2 cool white light, 20% hematocrit RBCs, 60 min incubation
[14] = system: Yersinia enterocolitica; assay: as above; type: cell-based; conditions: 80 μM TO, 7.4 J/cm^2 cool white light, 20% hematocrit RBCs, 60 min incubation
[15] = system: Pseudomonas fluorescens; assay: as above; type: cell-based; conditions: 80 μM TO, 7.4 J/cm^2 cool white light, 20% hematocrit RBCs, 60 min incubation
[16] = system: BVDV; type: cell-based, Bovine viral diarrhea virus
[17] = system: VSV; type: cell-based; conditions: 80 μM TO, 7.4 J/cm^2 cool white light, 20% hematocrit RBCs, 60 min incubation
[18] = system: model viruses; conditions: dimethylmethylene blue phototreatment with quinacrine as competitive membrane binding inhibitor; cited from earlier work

Question: Which results are given for `CN1/C(=C/c2cc[n+](C)c3ccccc23)Sc2ccccc21.Cc1ccc(S(=O)(=O)[O-])cc1` [TO, 1-methyl-4-[(3-methyl-2(3H)-benzothiazolylidene)methyl]quinoliniump-tosylate]?
Answer: Inactivation Log10, PRV [1]: 5.4 log10 and 5.4±0.7 log10 and 5.4 ± 0.7 (n = 4) log10; Inactivation Log10, Serratia marcescens [2]: 3.5 log10 and 3.5 ± 2.5 (n = 3) log10; Inactivation Log10, Serratia liquefaciens [3]: 2.8 log10 and 2.8 ± 0.6 (n = 4) log10; day 42 hemolysis in ADSOL additive solution [4]: 1.6±0.6%; hemolysis levels during storage, TO versus TP phototreated RBCs [4]: similar; hemolysis on day 42, TO maintained in the dark [4]: 0.31%; Inactivation Log10, Escherichia coli [5]: 5.3 log10 and 5.3 ± 2.0 (n = 4) log10; Inactivation Log10, intracellular HIV [6]: >6.3 (n = 3) log10; inactivation of bacteria, another four (more resistant) species [7]: 2-3 log10; inactivation of bacteria, four (sensitive) species [7]: 5-7 log10; Inactivation Log10, Deinococcus radiodurans [8]: >6.8 (n = 3) log10; Inactivation Log10, extracellular HIV [9]: >6.5 (n = 3) log10; Inactivation Log10, bacteriophage φ6 [10]: 6.7 log10 and 6.7±0.7 log10 and 6.7 ± 0.7 (n = 3) log10; Inactivation Log10, Staphylococcus epidermidis [11]: >7.0 (n = 4) log10; inactivation of tested enveloped viruses [12]: 5.1-7.4 log10; Inactivation Log10, Staphylococcus aureus [13]: 2.4 log10 and 2.4 ± 0.7 (n = 4) log10; Inactivation Log10, Yersinia enterocolitica [14]: 6.4 log10 and 6.4 ± 2.0 (n = 4) log10; Inactivation Log10, Pseudomonas fluorescens [15]: 2.3 log10 and 2.3 ± 1.2 (n = 4) log10; Inactivation Log10, BVDV [16]: 6.2 log10 and 6.2±0.1 log10 and 6.2 ± 0.1 (n = 3) log10; Inactivation Log10, VSV [17]: 7.1 log10 and 7.1±0.2 log10 and 7.1 ± 0.2 (n = 4) log10

Question: For `Cc1cc(=[N+](C)C)cc2sc3cc(N(C)C)cc(C)c3nc1-2.[Cl-]` [dimethylmethylene blue], which “reduction of model viruses” value [18] is on record?
Answer: The value was over 6 log10.

Reference: patent US7678538B2, “Disinfection of biological fluids using asymmetric cyanine dyes” (American National Red Cross, priority 2005, dated 2010)
